Data from US20180271891A1, “SELECTIVE TREATMENT OF PRMT5 DEPENDENT CANCER” (THE BROAD INSTITUTE INC., priority 2015, published 2018).

Columns and labels:
[1] = test system: MTAP− and MTAP+ cell lines (isogenic pairs); assay: Cell viability IC50 measurement (Cell Titer-Glo); format: cell-based
Description: Applicants tested the ability of these inhibitors to selectively impair viability of parental MTAP− cell lines compared to isogenic lines expressing MTAP, as well as parental MTAP+ cell lines compared to isogenic CRISPR-mediated MTAP knockout lines (FIG. 17).
Cell plating densities were determined by evaluating the number of cells required to achieve 70% confluency after 12 days in culture. Cells were seeded in 100 μL of media in 96-well plates (excluding wells in the first or last row or column) using the following densities in cells per well: LU99 at 360, H647 at 100, SF-172 at 35, SU8686 at 250, MIAPACA2 at 135, H838 at 73, H2126 at 1042, HCC44 at 62, KP2 at 292, H661 at 166, and H2030 at 250. Isogenic cell line pairs were seeded at the same densities for all experiments.
Drug was administered using the HP D300 digital dispenser (Hewlett-Packard). […] Media and drug were changed every 4 days.
Isogenic cell line pairs were plated and cultured in parallel for the same time period. Luminescence was measured according to the manufacturer's instructions using the EnVision Multilabel Reader (Perkin Elmer). Luminescence data from each well was normalized to luminescence from wells containing untreated cells on that same plate. IC50 was calculated by non-linear regression using the ‘log(inhibitor) vs. response (three parameters) analysis in GraphPad Prism 6.

PRMT5 = PRMT5 (Homo sapiens, UniProt O14744); details: cited from earlier work
Chain of PRMT5 (O14744 whole entry): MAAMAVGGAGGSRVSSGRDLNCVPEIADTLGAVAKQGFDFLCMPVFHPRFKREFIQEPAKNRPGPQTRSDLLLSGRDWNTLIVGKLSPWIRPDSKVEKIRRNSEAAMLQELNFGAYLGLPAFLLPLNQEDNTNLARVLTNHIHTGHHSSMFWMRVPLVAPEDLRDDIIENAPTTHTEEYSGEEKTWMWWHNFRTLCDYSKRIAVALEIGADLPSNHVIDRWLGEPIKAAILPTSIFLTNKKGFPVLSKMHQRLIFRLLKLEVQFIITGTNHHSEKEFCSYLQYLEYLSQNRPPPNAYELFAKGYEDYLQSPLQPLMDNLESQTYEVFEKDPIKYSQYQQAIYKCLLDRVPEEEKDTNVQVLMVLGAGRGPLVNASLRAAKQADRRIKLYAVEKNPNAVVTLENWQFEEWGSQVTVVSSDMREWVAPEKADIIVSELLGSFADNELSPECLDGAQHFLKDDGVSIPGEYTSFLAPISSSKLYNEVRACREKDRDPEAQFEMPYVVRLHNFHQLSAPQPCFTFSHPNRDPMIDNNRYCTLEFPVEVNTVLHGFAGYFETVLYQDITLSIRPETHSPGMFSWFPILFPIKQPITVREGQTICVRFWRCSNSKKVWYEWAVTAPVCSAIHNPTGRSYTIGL
Chain of PRMT5 (Q9BQA1 whole entry partner): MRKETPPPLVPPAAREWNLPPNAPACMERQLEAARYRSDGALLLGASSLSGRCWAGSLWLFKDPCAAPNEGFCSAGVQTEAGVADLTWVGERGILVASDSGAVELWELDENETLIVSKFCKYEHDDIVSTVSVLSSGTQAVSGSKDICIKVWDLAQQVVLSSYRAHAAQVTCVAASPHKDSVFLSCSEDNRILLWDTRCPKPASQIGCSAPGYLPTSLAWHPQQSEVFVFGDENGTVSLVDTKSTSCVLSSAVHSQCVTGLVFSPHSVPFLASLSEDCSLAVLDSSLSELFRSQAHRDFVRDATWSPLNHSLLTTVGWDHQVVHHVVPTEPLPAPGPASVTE

Which results are given for O=C(NC[C@H](O)CN1CCc2ccccc2C1)c1cc(NC2COC2)ncn1 [EPZ015666]?
differential sensitivity between isogenic MTAP− and MTAP+ cells ([1]; SF-172 isogenic pair): absent altogether; difference in mean IC50 values between MTAP+ and MTAP− cell lines ([1]; parental MTAP+ vs MTAP− cell lines): did not observe significant differences; mode of inhibition of PRMT5 (PRMT5): peptide-competitive and SAM-cooperative
